Measured values reported in PubChem BioAssay (NCI).
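Method: 48-hour compound exposure of cells in 96-well plates, five concentrations, linear interpolation of endpoints. Here, GI50 denotes the concentration required for 50% inhibition of growth. The concentration for full growth arrest is given as TGI.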

Legend:
Assay in all cases: NCI-60 cell line screen, 48 h
[1] = system: K-562 leukemia
[2] = system: HCC-2998 colon
[3] = system: UACC-257 melanoma
[4] = system: UO-31 renal
[5] = system: RPMI-8226 leukemia
[6] = system: SK-MEL-5 melanoma
[7] = system: A549 NSCLC
[8] = system: NCI/ADR-RES ovarian
[9] = system: OVCAR-4 ovarian
[10] = system: HS 578T breast
[11] = system: T-47D breast
[12] = system: MCF7 breast
[13] = system: IGROV1 ovarian
[14] = system: SF-295 CNS
[15] = system: MDA-MB-435
[16] = system: PC-3 prostate
[17] = system: MDA-MB-231 breast
[18] = system: SW-620 colon
[19] = system: CCRF-CEM leukemia
[20] = system: NCI-H226 lung
[21] = system: SF-268 CNS
[22] = system: SK-MEL-28 melanoma
[23] = system: HCT-116 colon
[24] = system: SN12C renal
[25] = system: M14 melanoma
[26] = system: OVCAR-8 ovarian
[27] = system: CAKI-1 renal
[28] = system: MOLT-4 leukemia
[29] = system: HOP-92 NSCLC
[30] = system: NCI-H23 lung
[31] = system: OVCAR-5 ovarian
[32] = system: HCT-15 colon
[33] = system: HOP-62 NSCLC
[34] = system: RXF 393 renal
[35] = system: NCI-H522 lung
[36] = system: SNB-75 CNS
[37] = system: UACC-62 melanoma
[38] = system: SK-MEL-2 melanoma
[39] = system: NCI-H460 lung
[40] = system: A498 renal
[41] = system: SF-539 CNS
[42] = system: EKVX NSCLC
[43] = system: LOX IMVI melanoma
[44] = system: HT29 colon
[45] = system: COLO 205 colon
[46] = system: DU-145 prostate
[47] = system: SNB-19 CNS
[48] = system: OVCAR-3 ovarian
[49] = system: U251 CNS
[50] = system: SK-OV-3 ovarian
[51] = system: BT-549 breast
[52] = system: 786-0 renal

Compound: COc1cccc(NC(=O)c2ccc(C(F)(F)F)nc2Nc2ccc(Cl)cc2C)c1
- GI50 [1]: 13.9 µM
- TGI [1]: 38.8 µM
- GI50 [2]: 2.9 µM
- TGI [2]: 18.7 µM
- GI50 [3]: 13.4 µM
- TGI [3]: 26.2 µM
- GI50 [4]: 1.45 µM
- TGI [4]: 8.29 µM
- GI50 [5]: 5.54 µM
- TGI [5]: 28.4 µM
- GI50 [6]: 14.6 µM
- TGI [6]: 27.8 µM
- GI50 [7]: 10.6 µM
- TGI [7]: 22.4 µM
- GI50 [8]: 5.6 µM
- TGI [8]: 20.2 µM
- GI50 [9]: 14.9 µM
- TGI [9]: 28.6 µM
- GI50 [10]: 6.56 µM
- TGI [10]: 29.3 µM
- GI50 [11]: 4.31 µM
- TGI [11]: 25.1 µM
- GI50 [12]: 7.96 µM
- TGI [12]: 47.7 µM
- GI50 [13]: 10.5 µM
- TGI [13]: 22.2 µM
- GI50 [14]: 12.4 µM
- TGI [14]: 28.6 µM
- GI50 [15]: 12.1 µM
- TGI [15]: 27.2 µM
- GI50 [16]: 4.36 µM
- TGI [16]: 17.9 µM
- GI50 [17]: 10.4 µM
- TGI [17]: 23.3 µM
- GI50 [18]: 14.5 µM
- TGI [18]: 28.7 µM
- GI50 [19]: 11.1 µM
- TGI [19]: 34.4 µM
- GI50 [20]: 14.7 µM
- TGI [20]: 34.8 µM
- GI50 [21]: 13.8 µM
- TGI [21]: 32.6 µM
- GI50 [22]: 15 µM
- TGI [22]: 28.8 µM
- GI50 [23]: 10.9 µM
- TGI [23]: 22.9 µM
- GI50 [24]: 12.4 µM
- TGI [24]: 25.7 µM
- GI50 [25]: 16.9 µM
- TGI [25]: 32.5 µM
- GI50 [26]: 11.8 µM
- TGI [26]: 24.1 µM
- GI50 [27]: 2.76 µM
- TGI [27]: 17.1 µM
- GI50 [28]: 10.2 µM
- TGI [28]: 51 µM
- GI50 [29]: 4.76 µM
- TGI [29]: 21.4 µM
- GI50 [30]: 6.45 µM
- TGI [30]: 20 µM
- GI50 [31]: 2.51 µM
- TGI [31]: 20 µM
- GI50 [32]: 11 µM
- TGI [32]: 22.9 µM
- GI50 [33]: 17.4 µM
- TGI [33]: 32.1 µM
- GI50 [34]: 1.17 µM
- TGI [34]: 15.4 µM
- GI50 [35]: 1.28 µM
- TGI [35]: 7.18 µM
- GI50 [36]: 12.3 µM
- TGI [36]: 25.5 µM
- GI50 [37]: 14.2 µM
- TGI [37]: 27.2 µM
- GI50 [38]: 10.3 µM
- TGI [38]: 21.9 µM
- GI50 [39]: 9.01 µM
- TGI [39]: 24.1 µM
- GI50 [40]: 1.65 µM
- TGI [40]: 11.9 µM
- GI50 [41]: 15.1 µM
- TGI [41]: 30.5 µM
- GI50 [42]: 10.2 µM
- TGI [42]: 24.2 µM
- GI50 [43]: 11.3 µM
- TGI [43]: 23.4 µM
- GI50 [44]: 10.2 µM
- TGI [44]: 22.1 µM
- GI50 [45]: 10.4 µM
- TGI [45]: 25.8 µM
- GI50 [46]: 15 µM
- TGI [46]: 28.3 µM
- GI50 [47]: 13.8 µM
- TGI [47]: 28.7 µM
- GI50 [48]: 4.69 µM
- TGI [48]: 19.9 µM
- GI50 [49]: 11.9 µM
- TGI [49]: 24.2 µM
- GI50 [50]: 13.4 µM
- TGI [50]: 27.8 µM
- GI50 [51]: 14.1 µM
- TGI [51]: 28.4 µM
- GI50 [52]: 14.7 µM
- TGI [52]: 31.4 µM
